Structures can show the parent of a compound that is named as a salt. Where two headings read alike, the source gives them in different places.
Tests used:
[1] = Picotamide stability under acidic conditions (HPLC content); type: physicochemical; settings: hydrochloric acid 1 M, three days
Method: The sample is dissolved in methanol/water 1:1.
Picotamide is dissolved in hydrochloric acid 1 M and stored at room temperature and 50° C. for three days.

[2] = Picotamide salt stability, degradation determined by HPLC
Method: If a spontaneous crystallization occurs after the salt formation, the solid is isolated by filtration.
Column: Phenomenex Hypersil C18-BDS, 4.6×150 mm, 5 μm, flow 1 ml/min, 25° C., detection at 254 nm. Ammonium acetate buffer 10 mM, pH 9, containing 15% methanol. After 17 min, the percentage of methanol is increased to 80%. The sample is dissolved in methanol/water 1:1.
Salts were formed in THF.

[3] = man, after oral administration; cited from earlier work

| Compound | Degradation [2] | Degradation ([2]; salts formed in THF, HPLC) | other results |
| --- | --- | --- | --- |
| COc1ccc(C(=O)NCc2cccnc2)cc1C(=O)NCc1cccnc1 [Picotamide, N,N′-bis-(3-picolyl)-4-methoxyisophthalamide] | – | – | picotamide content ([1]; 50° C.): 98.1%; picotamide content ([1]; room temperature): 99.2% |
| COc1ccc(C(=O)NCc2cccnc2)cc1C(=O)NCc1cccnc1 [hydrochloride (anhydrous)] | 0.0% | – | – |
| Br [hydrobromide] | 35% | – | – |
| COc1ccc(C(=O)NCc2cccnc2)cc1C(=O)NCc1cccnc1 [hydrochloride] | 0.6% | – | – |
| citrate | – | 0.2% | – |
| maleate | – | 11.5% | – |
| oxalate | – | 0.4% | – |
| COc1ccc(C(=O)NCc2cccnc2)cc1C(=O)NCc1cccnc1 [anhydrous picotamide] | – | – | time needed to reach the maximum inhibitory effect [3]: 8 h |
| fumarate | – | 6.7% | – |
| CC(=O)O [Acetate] | 0.6% | – | – |
| O=S(=O)(O)O [sulfate] | 0.1% | – | – |
| tartrate [reference compound] | – | 0.1% | – |
